This note sets out measurements from US4840954A, “6,7-disubstituted 1-cycloproply-1,4-dihydro-4-oxo-1,8-naphthyridine-3-carboxylic acids” (Bayer Aktiengesellschaft, priority 1985, dated 1989).

≈ marks a conversion by molar mass, not a printed value.

What all share (type): cell-based
The subject of assay [1] is E.coli 4418. Description: MIC, agar dilution test, E.coli 4418. As to conditions: Escherichia coli, agar dilution test / Isosensitest medium. An excerpt: (§1) As a comparison, the corresponding MIC values of 1-ethyl-6-fluoro-1,4-dihydro-4-oxo-7-(1-piperazinyl)-1,8-naphthyridine-3-carboxylic acid (AT 2266, enoxacin), which is known from European Patent Application 9,425, Japanese Patent Applications 81/45473 [C.A. 95, 115 597 (1981)] and 81/46811 [C.A. 95, 121 142 (1981)], from J. Med. Chem. 27, 292 (1984) or from J. Heterocycl.
(§2) Agar dilution test / Isosensitest medium
In general terms: In agar dilution, organisms are placed on agar that contains the substance at set levels.

The subject of assay [2] is E.coli Neum. Description: MIC, agar dilution test, E.coli Neum. As to conditions: Escherichia coli, agar dilution test / Isosensitest medium.
Description: as §1, §2

In assay [3] the test system is E.Coli 455/7. The experiment in a line: MIC, agar dilution test, E.Coli 455/7. As to conditions: Escherichia coli, agar dilution test / Isosensitest medium.
Description: as §1, §2

The subject of assay [4] is Klebsiella 63. Description: MIC, agar dilution test, Klebsiella 63. As to conditions: agar dilution test / Isosensitest medium.
Description: as §1, §2

For assay [5], the system named is Klebsiella 6179. Description: MIC, agar dilution test, Klebsiella 6179. As to conditions: agar dilution test / Isosensitest medium.
Description: as §1, §2

For assay [6], the system named is Proteus mir. 8175. Description: MIC, agar dilution test, Proteus mir. 8175. As to conditions: agar dilution test / Isosensitest medium.
Description: as §1, §2

Assay [7] concerns Proteus vulg. 1017. Description: MIC, agar dilution test, Proteus vulg. 1017. As to conditions: agar dilution test / Isosensitest medium.
Description: as §1, §2

The subject of assay [8] is Proteus morg. 11006. The experiment in a line: MIC, agar dilution test, Proteus morg. 11006. As to conditions: agar dilution test / Isosensitest medium.
Description: as §1, §2

Assay [9] concerns Providencia 12012. Description: MIC, agar dilution test, Providencia 12012. As to conditions: agar dilution test / Isosensitest medium.
Description: as §1, §2

In assay [10] the test system is Serratia 16040. The experiment in a line: MIC, agar dilution test, Serratia 16040. As to conditions: agar dilution test / Isosensitest medium.
Description: as §1, §2

Assay [11] has as its system Staphyloc. 1756. Description: MIC, agar dilution test, Staphyloc. 1756. As to conditions: agar dilution test / Isosensitest medium.
Description: as §1, §2

Assay [12] relates to Staphyloc. 133. The experiment in a line: MIC, agar dilution test, Staphyloc. 133. As to conditions: agar dilution test / Isosensitest medium.
Description: as §1, §2

Assay [13] has as its system Pseudomonas W. The experiment in a line: MIC, agar dilution test, Pseudomonas W. As to conditions: agar dilution test / Isosensitest medium.
Description: as §1, §2

On to `CCn1cc(C(=O)O)c(=O)c2cc(F)c(N3CCNCC3)nc21` [Enoxacin, 1-ethyl-6-fluoro-1,4-dihydro-4-oxo-7-(1-piperazinyl)-1,8-naphthyridine-3-carboxylic acid, reference compound], for which the minimum inhibitory concentration (MIC) – broadly, the lowest concentration that inhibits growth of the organism – in [1] worked out at 0.25 µg/mL (≈ 0.78 µM); in assay [2] it was 0.06 µg/mL (≈ 0.187 µM); in [3], 16 µg/mL (≈ 49.9 µM); in assay [4], 0.5 µg/mL (≈ 1.56 µM); in assay [5], 2 µg/mL (≈ 6.24 µM); in assay [6] it was 0.25 µg/mL (≈ 0.78 µM). Moreover, the MIC was 0.125 µg/mL (≈ 0.39 µM) in assay [7]; 0.125 µg/mL (≈ 0.39 µM) in [8]; 0.25 µg/mL (≈ 0.78 µM) in assay [9]; 32 µg/mL (≈ 99.9 µM) in assay [10]; 1 µg/mL (≈ 3.12 µM) in [11]; 1 µg/mL (≈ 3.12 µM) in assay [12]. The same compound gave an MIC in assay [13] of 2 µg/mL (≈ 6.24 µM).

`O=C(O)c1cn(C2CC2)c2nc(N3CCNCC3)c(F)cc2c1=O` [Example 1, 1-Cyclopropyl-6-fluoro-1,4-dihydro-4-oxo-7-(1-piperazinyl)-1,8-naphthyridine-3-carboxylic acid]: the MIC in [1] was 0.03 µg/mL (≈ 0.0903 µM); in assay [2], not above 0.015 µg/mL; in [3], 4 µg/mL (≈ 12 µM); in assay [4], 0.03 µg/mL (≈ 0.0903 µM); in assay [5], 0.125 µg/mL (≈ 0.376 µM); in assay [6], 0.125 µg/mL (≈ 0.376 µM). In addition, the MIC in assay [7] amounted to 0.06 µg/mL (≈ 0.181 µM); in assay [8] it was 0.06 µg/mL (≈ 0.181 µM); in assay [9], 0.03 µg/mL (≈ 0.0903 µM); in [10], 8 µg/mL (≈ 24.1 µM); in [11], 0.5 µg/mL (≈ 1.5 µM); in [12], 0.5 µg/mL (≈ 1.5 µM). In addition, inhibition of growth in assay [13] (MIC) required 0.125 µg/mL (≈ 0.376 µM).

Take `CC1CN(c2nc3c(cc2F)c(=O)c(C(=O)O)cn3C2CC2)CCN1` (stereo not shown) [Example 2, 1-Cyclopropyl-6-fluoro-1,4-dihydro-7-(3-methyl-1-piperazinyl)-4-oxo-1,8-naphthyridine-3-carboxlyic acid]: the MIC in assay [1] is 0.03 µg/mL (≈ 0.0866 µM); in assay [2] it was not above 0.015 µg/mL; in assay [3], 8 µg/mL (≈ 23.1 µM); in assay [4], not above 0.015 µg/mL; in assay [5], 0.125 µg/mL (≈ 0.361 µM); in assay [6], 0.25 µg/mL (≈ 0.722 µM). Further, the MIC in assay [7] is 0.125 µg/mL (≈ 0.361 µM); in assay [8], 0.03 µg/mL (≈ 0.0866 µM); in assay [9] it was 0.125 µg/mL (≈ 0.361 µM); in assay [10], 8 µg/mL (≈ 23.1 µM); in assay [11] it was 0.5 µg/mL (≈ 1.44 µM); in assay [12], 0.5 µg/mL (≈ 1.44 µM). This compound also returned an MIC in assay [13] of 1 µg/mL (≈ 2.89 µM).

As for `CN1CCN(c2nc3c(cc2F)c(=O)c(C(=O)O)cn3C2CC2)CC1.Cl` [Example 3, 1-Cyclopropyl-6-fluoro-1,4-dihydro-7-(4-methyl-1-piperazinyl)-4-oxo-1,8-naphthyridine-3-carboxylic acid hydrochloride], the MIC in assay [1] is 0.06 µg/mL; in assay [2] it was not above 0.015 µg/mL; in assay [3], 8 µg/mL; in assay [4], not above 0.015 µg/mL; in [5] it was 0.03 µg/mL; in assay [6], 0.25 µg/mL. Moreover, the MIC in assay [7] stood at 0.125 µg/mL; in assay [8] it was 0.06 µg/mL; in assay [9] it was 0.06 µg/mL; in [10], 8 µg/mL; in assay [11] it was 0.5 µg/mL; in assay [12], 0.5 µg/mL. In addition, in [13], 1 µg/mL was the least that counted as inhibitory (MIC).
